A short description of this assay: Sensory comparison of flavored products with the flavor not according to the invention. Format: in vivo.

Take `CCC1OC(C)(CC)CCC1C(C)C` (stereo not shown) [2,6-diethyl-5-isopropyl-2-methyl-tetrahydropyran]: the feeling of freshness entry is, setting by setting: (standard chewing gum (Example 2.12), 2% flavor composition) “more intense feeling of freshness”; (sugar-free chewing gum (Example 2.11), 1% flavor composition, in particular initial phase of consumption) “more intense feeling of freshness”; (toothpaste, phosphate base (Example 2.13), 1% flavor composition, in particular at the start of brushing) “distinct feeling of freshness”. The “fullness in the mouth” value is, setting by setting: (standard chewing gum (Example 2.12), 2% flavor composition, in particular at the start of chewing) “greater fullness in the mouth”; (toothpaste 'silica opaque' (Example 2.15), 1% flavor composition, during brushing) “increased fullness in the mouth”. In addition, the boost effect result (sugar-free chewing gum (Example 2.11), 1% cinnamon type cool flavor) was “distinct “boost effect””. Moreover, for the setting “toothpaste 'silica opaque' (Example 2.15), 1% flavor composition”, the “feeling in the mouth” value is on record as “fresher feeling in the mouth”. Moreover, where the note is “toothpaste, phosphate base (Example 2.13), 1% spearmint type flavor”, the “effect of the flavor when brushing” value is reported as “intensified effect of the flavor when brushing”. In addition, the retronasal cooling entry (toothpaste, transparent gel (Example 2.14), 1% flavor composition) is on record as “distinct retronasal cooling”. In addition, the freshness profile entry (toothpaste, transparent gel (Example 2.14), 1% flavor composition, during brushing) is recorded as “clearer freshness profile”.

(Values after patent US8242289B2, “Alkyl-substituted tetrahydropyrans as flavoring substances” (SYMRISE AG, priority 2009, dated 2012).)
